Key:
KCC2 pThr1007 = assay: Phosphorylation immunoblot in KCC2-transfected HEK293 cells; assay type: cell-based, human; details: concentration inhibiting phosphorylation
Protocol: (§1) HEK293 (human embryonic kidney 293) cells were cultured on 10-cm-diameter dishes in DMEM supplemented with 10% (v/v) foetal bovine serum, 2 mM L-glutamine, 100 U/ml penicillin and 0.1 mg/ml streptomycin. HEK293 cells were transfected with a mixture of 20 μl of 1 mg/ml polyethylenimine (Polysciences) and 5-10 μg of plasmid DNA as described previously (Durocher et al., 2002). 36 hours post-transfection cells were stimulated with either control isotonic or hypotonic medium for a period of 30 minutes. Cells were lysed in 0.3 mL of ice-cold lysis buffer/dish, lysates were clarified by centrifugation at 4° C. for 15 minutes at 26,000 g and the supernatant aliquots were frozen in liquid nitrogen and stored at −20° C. Protein concentrations were determined using the Bradford method. Cells were treated with the indicated concentrations of the SPAK/OSR1 inhibitors. […] Hypotonic low chloride buffer was 67.5 mM sodium-gluconate, 2.5 mM potassium-gluconate, 0.25 mM CaCl2), 0.25 mM MgCl2, 0.5 mM Na2HPO4, 0.5 mM Na2SO4 and 7.5 mM HEPES (pH 7.5).
(§2) The membranes were incubated for 30 min with TBST (Tris-buffered saline, 0.05% Tween-20) containing 5% (w/v) skim milk. The blots were then washed six times with TBST and incubated for 1 hour at room temperature with secondary HRP-conjugated antibodies diluted 5000-fold in 5% (w/v) skim milk in TBST. After repeating the washing steps, signals were detected with enhanced chemiluminescence reagent. Immunoblots were developed using a film automatic processor (SRX-101; Konica Minolta Medical) and films were scanned at 600 dpi (PowerLook 1000; UMAX). Figures were generated using Photoshop/Illustrator (Adobe). The densities of bands were measured with ImageJ. For phospho-antibody immunoprecipitation, KCC isoforms were immunoprecipitated from indicated cell extracts. 2 mg of the indicated clarified cell extract were mixed with 15 μg of the indicated phospho-specific KCC antibody conjugated to 15 μl of protein-G-Sepharose, in the added presence of […] of the dephosphorylated form of the phosphopeptide antigen, and incubated 2 hours at 4° C. with gentle shaking. Immunoprecipitates were washed three times with 1 mL of lysis buffer containing 0.15 M NaCl and twice with 1 ml of buffer A. Bound proteins were eluted with 1×LDS sample buffer.
(§3) HEK293 cells were transfected with a DNA construct encoding wild type N-terminally FLAG-tagged KCC2. 36 hrs post-transfection, cells were exposed 30 min to either control isotonic or hypotonic low [C1^−] conditions, then treated in the same conditions for an additional 30 min with the indicated inhibitors at the concentrations noted. Cell lysates were subjected to SDS-PAGE and Western blotting with the indicated antibodies. See FIG. 3 for Western blot quantitation.
(§4) Referring to FIG. 2, concentration-response experiments testing effects of Closantel analogs on phosphorylation of KCC2 Thr906/Thr1007 are shown. HEK293 cells were transfected with DNA construct encoding wild type N-terminally FLAG-tagged KCC2. 36 h post-transfection, cells were exposed 30 min to either control isotonic conditions or hypotonic low Cl^− conditions, then treated in the same conditions with the specified inhibitors (1b, 1c, 1f, 1d, 1h, and 1g, respectively) at the indicated concentrations for an additional 30 min. Lysates were subjected to SDS-PAGE and Western blotting with the indicated antibodies.
(§5) Referring to FIG. 3, HEK293 cells were transfected with the DNA construct encoding wild type N-terminally FLAG-tagged KCC2. 36 h post-transfection, cells were exposed 30 min to either control isotonic or hypotonic low Cl^− conditions, then treated in the same conditions with the specified inhibitors at the indicated concen-trations for an additional 30 min. Lysates were subjected to SDS-PAGE and Western blotting with the indicated antibodies. Closantel, STOCK1S-14279 and STOCK1S-50699 were used as reference compounds.

KCC2 pThr906 = assay: as above; assay type: cell-based, human; details: concentration inhibiting phosphorylation
Protocol: as §1, §2, §3, §4, §5

SPAK pSer373 = assay: as above; assay type: cell-based, human; details: concentration inhibiting phosphorylation
Protocol: as §1, §2, §3, §4, §5

GST-[T233E]SPAK kinase = target: T1, GST-[T233E]SPAK kinase (Homo sapiens, UniProt Q9UEW8, T231E); assay: SPAK kinase assay employing CATCHtide; assay type: biochemical
T1 construct: made in house; host or cells: E. coli
Protocol: SPAK kinase assays employing CATCHtide (cation chloride co-transporter peptide substrate). Peptide kinase assays, performed in triplicate, were set up in a total volume of 50 μl containing 0.5 μg GST-[T233E]SPAK kinase (˜5 nM at ˜10% purity) in 50 mM Tris/HCl, pH 7.5, 0.1 mM EGTA, 10 mM MgCl2, 300 μM CATCHtide ([…]; SEQ ID NO:1), […] [γ-32P]ATP (˜500 cpm/pmol) and the indicated concentrations of inhibitor dissolved in DMSO. After incubation for 30 min at 30° C., reactions were terminated by spotting 40 μl of the reaction mix onto P81 phosphocellulose paper and immersion in 50 mM phosphoric acid. The papers were washed extensively and the incorporation of [γ-^32P]ATP into CATCHtide was quantified by Cerenkov counting. IC^50 values were calculated with GraphPad Prism using non-linear regression analysis.
Referring to FIG. 7A, the activation of SPAK kinase by MO25α is shown. SPAK was assayed in the absence or presence of five-fold molar excess of wild-type MO25α.
Referring to FIG. 7B, kinetic data was determined for ZT-1a in the absence or presence of five-fold molar excess of wild-type MO25α. Data points are the average of three determinations, and the error bars are +/−SEM.

SMILES: Cc1cc(C(C#N)c2ccc(Cl)cc2)c(Cl)cc1NC(=O)c1cc(Cl)ccc1O (stereo not shown) [ZT-1a, 5-chloro-N-(5-chloro-4-((4-chlorophenyl)(cyano)methyl)-2-methylphenyl)-2-hydroxy-benzamide]
- KCC2 pThr1007 (μM) hypo (KCC2 pThr1007; hypotonic low Cl- conditions): 3 μM
- KCC2 pThr1007 (μM) Iso (KCC2 pThr1007; isotonic conditions): 1 μM
- KCC2 pThr906 (μM) hypo (KCC2 pThr906; hypotonic low Cl- conditions): 3, 3 μM
- KCC2 pThr906 (μM) Iso (KCC2 pThr906; isotonic conditions): 3, 3 μM
- SPAK pSer373 (μM) hypo (SPAK pSer373; hypotonic low Cl- conditions): 3 μM
- SPAK pSer373 (μM) Iso (SPAK pSer373; isotonic conditions): 1 μM
- change of IC50 values by addition of MO25α (GST-[T233E]SPAK kinase): not significantly altered
- change of IC50 values with increasing ATP concentrations (GST-[T233E]SPAK kinase; SPAK activity at different ATP concentrations): unchanged
- IC50 (GST-[T233E]SPAK kinase; absence of wild-type MO25α): 40.5 µM
- IC50 (GST-[T233E]SPAK kinase; presence of five-fold molar excess of wild-type MO25α): 41.3 µM
